We go through two compounds from US20120258113A1, “SUSBSTANTIALLY PURE STEROIDOGENESIS INDUCING PEPTIDE AND USES THEREOF” (CLARK ATLANTA UNIVERSITY, priority 2006, published 2012).

Experiment [1] deals with Leydig cells. As to the kind of experiment: Effect of kinase inhibitors on SIP-stimulated DNA synthesis in Leydig cells. The class given is cell-based, rat. The conditions noted are these: PD98059 25 μM; LY294002 5 μM; with SIP. How it is done:
(§1) Immature rat Leydig cells and various cancer cell lines were starved for 48 hours before treatment. The cells were then treated with SIP, the polypeptide having the amino acid sequence identified as SEQ ID NO:2, LH, and EGF for 18 hours. The incubation media were collected (Leydig cells) and analyzed for total androgen production. ^3H-thymidine (1 μCi/ml) was added to the cells for further 4 hours incubation. Then the hot media were removed; ice-cold water was added to the cells which were lysed by sonication. The cell lysates were filterd through DE81 ion-exchanger filters. The filter membranes were then put in vials filled with scintillation fluid, and the radioactivity was measured by a Beckman β-counter.
Immature Leydig cells were cultured for 18 h and treated with different concentrations of oLH, SIP and EGF. For some experiments, the cells were treated with oLH or SIP for 18 h in the absence or presence of inhibitors of tyrosine kinase (Genistein; 10 uM), MAPK-kinase (PD98059; 25 μM), PI3-kinase (LY294002; 5 μM) or PKA (H89; 10 μM) to determine the intracellular signaling pathways involved in the effects of SIP on androgen production. The incubation media were collected and analyzed for total androgens using a radioimmunoassay, as described previously (Dickson et al., 2002). […] All samples were analyzed in the same assay, and the intra-assay coefficient of variation was <10%.

Experiment [2] has as its system immature rat Leydig cells. Briefly: Thymidine incorporation assay (DNA synthesis) in immature rat Leydig cells. The class given is cell-based. To be noted: 3H-thymidine incorporation. How it is done:
Immature rat Leydig cells (ILC) were isolated from 10-day old rat testes and cultured with serum-free medium before treatment. Immature rats were sacrificed at 10 days of age, and the testes were removed Immature Leydig cells were isolated and cultured. The decapsulated testes were incubated for 5 min in culture medium containing 0.25 mg collagenase/ml (Type I, Sigma) in shaking water bath. The seminiferous tubules were allowed to settle at unit gravity for 5 min, and the supernatant containing the suspension of interstitial cells was removed. The supernatant was centrifuged at 90×g for 10 min, and the cell pellet was washed twice by re-suspension in fresh medium followed by centrifugation. […] Immature Leydig cells cultured in 24-well plates (2×10^5 cells/well) were treated with several doses of oLH for 48 h, and the conditioned media were analyzed for androgen content.
Immature rat Leydig cells and various cancer cell lines were starved for 48 hours before treatment. […] The incubation media were collected (Leydig cells) and analyzed for total androgen production. ^3H-thymidine (1 μCi/ml) was added to the cells for further 4 hours incubation. […] The filter membranes were then put in vials filled with scintillation fluid, and the radioactivity was measured by a Beckman β-counter.

Experiment [3] has as its system human ovarian epithelial cancer (HEY) cells. Briefly: Thymidine incorporation assay (DNA synthesis) in HEY cells. It is filed as cell-based. To be noted: different doses of peptide. How it is done:
(§2) Ovarian (HEY, SKA), prostate (DU145, PC3) and breast (MCF7) cancer cell lines were cultured and maintained using well-established culture procedures.
as §1
Background: Uptake of a labelled nucleoside into DNA is a usual measure of proliferation.

Experiment [4] concerns immature rat Leydig cells and ovarian, prostate and liver cancer cell lines. As to the kind of experiment: DNA synthesis in Leydig cells and cancer cell lines (summary of FIGS. 8-10). It is filed as cell-based. How it is done:
as §2, §1

For experiment [5], the system named is rat Leydig cells. As to the kind of experiment: Testosterone production by rat Leydig cells (radioimmunoassay). The class given is cell-based. The conditions noted are these: cultured 6, 24 or 48 hours; for testosterone production: radioimmunoassay. How it is done: Immature rat Leydig cells (ILC) were isolated from 10-day old rat testes and cultured with serum-free medium before treatment. Immature rats were sacrificed at 10 days of age, and the testes were removed Immature Leydig cells were isolated and cultured. The decapsulated testes were incubated for 5 min in culture medium containing 0.25 mg collagenase/ml (Type I, Sigma) in shaking water bath. The seminiferous tubules were allowed to settle at unit gravity for 5 min, and the supernatant containing the suspension of interstitial cells was removed. The supernatant was centrifuged at 90×g for 10 min, and the cell pellet was washed twice by re-suspension in fresh medium followed by centrifugation. The cell suspension was plated in 24-well tissue culture plates (Nunclon; Nunc, Roskilde, Denmark; 2×10^5 cells/well) or in 6-well plates (2×10^6 cells/well) depending upon the end point of the experiment. The cells were cultured at 37° C. in a humidified atmosphere of 5% CO2 and 95% air in serum-free medium. After 1 h, the immature Leydig cells were well attached to the surface of the culture plates, whereas contaminating cells (Sertoli cells, germ cells, precursor Leydig cells) were loosely attached. The cells were washed three times with medium to remove loosely attached cells. At this stage, the cell preparation contains more than 90% immature Leydig cells. Immature Leydig cells cultured in 24-well plates (2×10^5 cells/well) were treated with several doses of oLH for 48 h, and the conditioned media were analyzed for androgen content.
Immature Leydig cells were cultured for 18 h and treated with different concentrations of oLH, SIP and EGF. […] The incubation media were collected and analyzed for total androgens using a radioimmunoassay, as described previously (Dickson et al., 2002). […] All samples were analyzed in the same assay, and the intra-assay coefficient of variation was <10%.

In experiment [6] the test system is StAR mRNA. Briefly: StAR mRNA expression in rat Leydig cells (RT-PCR). The conditions noted are these: Leydig cells treated for 24 hour. The class given is cell-based. How it is done: Total RNA was isolated from Leydig cells using TRIzol (Invitrogen, Carlsbad, Calif.) followed by chloroform extraction and isopropanol precipitation. Two micrograms of total RNA were reverse transcribed at 37° C. for 1 h in a reaction mixture containing 0.5 mM dNTP (Fisher Scientific), 400 U of M-MLV Reverse Transcriptase (Promega), 1×RT buffer, 0.5 mM dithiotreitol (Bio-Rad) and 0.5 μg of oligo dT (Promega). After incubation, the RT enzyme was heat inactivated at 70° C. for […] and the reaction cooled to 4° C. Four microliters of RT reactions were added to separate PCR reaction mixtures (total 10 μl) containing 0.1 mM dNTPs, (Fisher), 0.5 U Tag DNA polymerase (PGC Scientifics, Frederick, Md.), 1×PCR buffer with 3 mM MgC12 (Idaho Technology, Salt Lake City, Utah) and […] of the specific primers for the following genes: scavenger receptor B type 1 (SR-B1), cytochrome P450 cholesterol side-chain cleavage (P450scc), 3β-hydroxysteroid dehydrogenase (3β-HSD), 17 alpha-hydroxylase/C17-20 lyase (P450c17) and steroidogenic acute regulatory (StAR) protein. L19 (a ribosomal protein) primer pair was used as internal control. The following protocol was used in the Rapid Cycler thermal cycler (Idaho Technology): 94° C. for 15 s (initial denaturation), followed by 94° C. for 0 s, 60° C. for 0 s, 72° C. for 20 s for 35 cycles, and 72° C. for 30 s (final extension). […]

Experiment [7] deals with StAR protein. Briefly: StAR protein expression in rat Leydig cells (Western blotting). To be noted: Leydig cells treated for 24 hour, listed as synthetic peptide 2. It is filed as cell-based.
Experiment [8] concerns tyrosine phosphorylation of Leydig cell proteins. As to the kind of experiment: Tyrosine phosphorylation of Leydig cell proteins (phospho-tyrosine immunoblot). It is filed as cell-based, rat. To be noted: Leydig cells treated for 30 minutes; listed as synthetic peptide 2. How it is done:
(§3) To determine the effects of SIP and EGF on activation of proteins involved in either MAP-kinase or PI3-kinase signaling pathway, immature Leydig cells were cultured in 6-well plates. The cells were washed and treated with SIP (50 μg/ml) or EGF (10 ng/ml) for 30 min in the presence or absence of inhibitors of MAPK-kinase (PD98059; 25 μM) or PI3-kinase (LY294002; 5 μM). The cells were washed twice with ice-cold phosphate-buffered saline and lysed in lysis buffer (Cell Signaling Technology, Beverly, Mass.) containing 20 mM Tris-HCl (pH 7.5), 150 mM NaCl, 1 mM Na2EDTA, 1 mM EGTA, 1% Triton, 2.5 mM sodium pyrophosphate, 1 mM β-glycerophosphate, 1 mM Na3VO4, 1 μg/ml leupeptin and 1× protease inhibitor cocktail (Calbiochem, San Diego, Calif.). Protein concentrations were determined by the Lowry HS assay using the Bio-Rad DCProtein Assay kit (Bio-Rad, Hercules, Calif.) according to the instruction provided by the manufacturer. Cell lysates were mixed with Lammeli's buffer (62.5 mM Tris, pH 6.8, 2% SDS, 5% β-mercaptoethanol and 10% glycerol), and individual samples (25 μg protein) were subjected to SDS-PAGE in 10% gels and transferred to PVDF membranes (Millipore). The membranes were blocked overnight at 4° C. in TBST (50 mM Tris, pH 7.5, containing 0.15M NaCl, 0.05% Tween-20 and 4% fat-free skimmed milk). […]
In general terms: A western blot detects proteins with antibodies after separation by electrophoresis.

The test system of experiment [9] is MAP-kinase signaling pathway (Ras, MEK, ERK). Briefly: Activation of MAP-kinase signaling pathway in Leydig cells (activation specific immunoblots). It is filed as cell-based, rat. To be noted: 30 minutes. How it is done: as §3
Experiment [10] concerns PI3-kinase/AKT pathway. As to the kind of experiment: Activation of PI3-kinase/AKT pathway in rat Leydig cells (activation specific antibodies). The class given is cell-based. The conditions noted are these: 30 min. How it is done:
as §3

“Also recorded” adds a separate entry of the source.

Turning to `COc1cccc(-c2cc(=O)c3ccccc3o2)c1N` [PD98059], the “effect of inhibitor on SIP effects on DNA synthesis” value in experiment [1] is recorded as “blocks the effects of SIP on DNA synthesis”.

In the case of DVNGGGATLPQPLYQTA [peptide 2], the DNA synthesis entry was “capable of inducing proliferation of immature rat Leydig cells” in [2] and “capable of exerting mitogenic effects” in experiment [3]. Moreover, the “DNA synthesis in different cells” value in [4] is “significant stimulation of DNA synthesis”. Besides, the “testosterone production compared with purified SIP” value in experiment [5] is recorded as “not as high as those observed with purified SIP”. The testosterone production result is given as “significant stimulation of testosterone production” in [5] (listed as SEQ ID NO:2) and “stimulation of testosterone production” in experiment [5] (listed as synthetic SIP peptide 2). Besides, in experiment [6], the “expression of StAR mRNA” value is recorded as “induce the expression of StAR mRNA”. Moreover, in [7], the “expression of StAR protein” value is “stimulated the induction of StAR protein; also recorded: induce the expression of protein”. The “tyrosine phosphorylation of cell proteins” value in experiment [8] was “induces the phosphorylation of several proteins at tyrosine; also recorded: capable of binding to SIP receptors and initiating signaling cascade”. The “activation of MAP-kinase pathway (Ras, MEK, ERK1/ERK2 phosphorylation)” value in experiment [9] is on record as “activated”; in experiment [9] (listed as synthetic peptide 2), “significant induction of phosphorylation”. The results for the “activation of PI3-kinase/AKT pathway (AKT phosphorylation)” value in experiment [10] and in experiment [10] (listed as synthetic peptide 2) were “activated” and “significant induction of phosphorylation”, respectively.
